Source: ChEMBL document CHEMBL4038292 (Bioorg Med Chem Lett, 2017)
pKi: −log10 of the molar value. The source made the active and inactive calls. No cut-off for these calls is given here.

Tests used:
[1] = tested on: Mus musculus; assay: Antinociceptive activity in mouse model of thermal-induced nociception assessed as increase in latency to tail withdrawal at 5 mg/kg, sc measured up to 90 mins by tail flick test; format: functional, organism-based
[2] = Effect on human sperm motility at 10^-6 mol/L measured immediately post dose by Makler counting chamber method (reference value: 70 +/- 4.2%); format: ADME, cell-based; details: 1 µM
[3] = Effect on human sperm motility at 10^-5 mol/L measured at 60 mins post dose by Makler counting chamber method (reference value: 64.8 +/- 6.6%); format: ADME, cell-based; details: 1 h, 10 µM
[4] = tested on: Mus musculus; assay: Antinociceptive activity in mouse model of thermal-induced nociception assessed as increase in latency to tail withdrawal at 2.5 nmol/kg, icv measured up to 60 mins by tail flick test; format: functional
[5] = tested on: Mus musculus; assay: Antinociceptive activity in mouse model of thermal-induced nociception assessed as increase in latency to tail withdrawal at 10 mg/kg, sc measured up to 90 mins by tail flick test; format: functional, organism-based
[6] = Half life in Kunming mouse plasma at 500 uM by RP-HPLC method; format: ADME, cell-free
[7] = Half life in Kunming mouse brain homogenate at 500 uM by RP-HPLC method; format: ADME, tissue-based
[8] = molecular target: Delta-type opioid receptor (Rattus norvegicus, UniProt P33533); assay: Displacement of [3H]DPDPE from delta-opioid receptor in Wistar rat brain membrane after 3 hrs by microbeta scintillation counting method; format: cell membranes
Sequence of Delta-type opioid receptor (P33533 whole entry): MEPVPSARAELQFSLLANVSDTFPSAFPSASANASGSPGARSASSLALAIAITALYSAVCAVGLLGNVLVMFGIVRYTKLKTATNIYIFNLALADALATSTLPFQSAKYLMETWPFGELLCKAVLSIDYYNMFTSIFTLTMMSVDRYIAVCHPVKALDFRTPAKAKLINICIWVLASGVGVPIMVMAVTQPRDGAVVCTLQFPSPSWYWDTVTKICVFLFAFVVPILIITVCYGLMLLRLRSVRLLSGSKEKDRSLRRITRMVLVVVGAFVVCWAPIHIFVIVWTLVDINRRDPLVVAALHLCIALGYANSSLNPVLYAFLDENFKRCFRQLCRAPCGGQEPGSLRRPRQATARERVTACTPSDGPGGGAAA

[9] = organism: Rattus norvegicus; assay: Selectivity ratio of Ki for displacement of [3H]DPDPE from delta-opioid receptor in Wistar rat membrane to Ki for displacement of [3H]DAMGO from mu-opioid receptor in Wistar rat brain membrane; format: cell membranes
[10] = Effect on human sperm motility at 10^-7 mol/L measured at 10 mins post dose by Makler counting chamber method (reference value: 69 +/- 4.7%); format: ADME, cell-based; details: 0.1 µM
[11] = Effect on human sperm motility at 10^-6 mol/L measured at 60 mins post dose by Makler counting chamber method (reference value: 64.8 +/- 6.6%); format: ADME, cell-based; details: 1 h, 1 µM
[12] = Effect on human sperm motility at 10^-6 mol/L measured at 30 mins post dose by Makler counting chamber method (reference value: 66.9 +/- 4.6%); format: ADME, cell-based; details: 0.5 h, 1 µM
[13] = molecular target: Mu-type opioid receptor (Rattus norvegicus, UniProt P33535); assay: Displacement of [3H]DAMGO from mu-opioid receptor in Wistar rat brain membrane after 1 hr by microbeta scintillation counting method; format: cell membranes
Sequence of Mu-type opioid receptor (P33535 whole entry): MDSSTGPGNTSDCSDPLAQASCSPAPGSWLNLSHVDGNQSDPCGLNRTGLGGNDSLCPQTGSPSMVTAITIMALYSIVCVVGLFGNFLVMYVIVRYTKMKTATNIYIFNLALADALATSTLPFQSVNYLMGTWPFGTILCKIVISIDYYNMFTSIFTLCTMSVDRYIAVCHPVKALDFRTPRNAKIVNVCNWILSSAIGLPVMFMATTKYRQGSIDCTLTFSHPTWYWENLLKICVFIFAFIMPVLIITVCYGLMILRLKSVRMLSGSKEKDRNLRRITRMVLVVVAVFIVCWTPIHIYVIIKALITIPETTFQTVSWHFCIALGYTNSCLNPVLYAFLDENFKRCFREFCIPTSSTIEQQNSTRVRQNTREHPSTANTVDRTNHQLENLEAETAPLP

[14] = Effect on human sperm motility at 10^-6 mol/L measured at 90 mins post dose by Makler counting chamber method (reference value: 62.1 +/- 5.7%); format: ADME, cell-based; details: 1.5 h, 1 µM
[15] = Effect on human sperm motility at 10^-7 mol/L measured immediately post dose by Makler counting chamber method (reference value: 70 +/- 4.2%); format: ADME, cell-based; details: 0.1 µM
[16] = Effect on human sperm motility at 10^-7 mol/L measured at 60 mins post dose by Makler counting chamber method (reference value: 64.8 +/- 6.6%); format: ADME, cell-based; details: 1 h, 0.1 µM
[17] = Effect on human sperm motility at 10^-5 mol/L measured at 90 mins post dose by Makler counting chamber method (reference value: 62.1 +/- 5.7%); format: ADME, cell-based; details: 1.5 h, 10 µM
[18] = Effect on human sperm motility at 10^-5 mol/L measured immediately post dose by Makler counting chamber method (reference value: 70 +/- 4.2%); format: ADME, cell-based; details: 10 µM
[19] = Effect on human sperm motility at 10^-6 mol/L measured at 10 mins post dose by Makler counting chamber method (reference value: 69 +/- 4.7%); format: ADME, cell-based; details: 1 µM
[20] = Effect on human sperm motility at 10^-5 mol/L measured at 10 mins post dose by Makler counting chamber method (reference value: 69 +/- 4.7%); format: ADME, cell-based; details: 10 µM
[21] = tested on: Mus musculus; assay: Antinociceptive activity in mouse model of thermal-induced nociception assessed as increase in latency to tail withdrawal at 10 nmol/kg, icv measured 10 to 80 mins post dose by tail flick test relative to control; format: functional
[22] = Effect on human sperm motility at 10^-5 mol/L measured at 30 mins post dose by Makler counting chamber method (reference value: 66.9 +/- 4.6%); format: ADME, cell-based; details: 0.5 h, 10 µM
[23] = Effect on human sperm motility at 10^-7 mol/L measured at 30 mins post dose by Makler counting chamber method (reference value: 66.9 +/- 4.6%); format: ADME, cell-based; details: 0.5 h, 0.1 µM
[24] = Effect on human sperm motility at 10^-7 mol/L measured at 90 mins post dose by Makler counting chamber method (reference value: 62.1 +/- 5.7%); format: ADME, cell-based; details: 1.5 h, 0.1 µM
[25] = tested on: Mus musculus; assay: Antinociceptive activity in mouse model of thermal-induced nociception assessed as increase in latency to tail withdrawal at 10 nmol/kg, icv measured up to 50 mins by tail flick test; format: functional
[26] = tested on: Mus musculus; assay: Antinociceptive activity in mouse model of thermal-induced nociception assessed as increase in latency to tail withdrawal at 5 mg/kg, sc measured up to 50 mins by tail flick test; format: functional, organism-based
[27] = tested on: Mus musculus; assay: Antinociceptive activity in mouse model of thermal-induced nociception assessed as increase in latency to tail withdrawal at 10 nmol/kg, icv measured up to 60 mins by tail flick test; format: functional

In the case of C[C@@H](NC(=O)[C@H](Cc1ccc(O)cc1)NC(=N)N)C(=O)NCC(=O)N[C@@H](Cc1ccc(Cl)cc1)C(N)=O, the Activity [1] was “Active”, the Activity [2] was 69.5% and the Activity [3] was 55.3%. For the same compound, the Activity [4] was “Active”, the Activity [5] was “Active” and the half-life at 500 µM [6] was 3.91 h. It also gave a half-life at 500 µM [7] of 6.52 h, a pKi [8] of 7.00 and a Ratio Ki [9] of 288. The Activity [10] was 58.8%, the Activity [11] was 72% and the Activity [12] was 64.6%. It also gave a pKi [13] of 9.46, an Activity [14] of 78.3% and an Activity [15] of 62.7%. The Activity [16] was 55.2%, the Activity [17] was 53.5% and the Activity [18] was 60.1%. For the same compound, the Activity [19] was 64.6%, the Activity [20] was 59.3% and the MPE [21] was 90 - 100%. The Activity [22] was 56.1%, the Activity [23] was 59% and the Activity [24] was 53.2%.

Compound C[C@@H](NC(=O)[C@@H](N)Cc1ccc(O)cc1)C(=O)NCC(=O)N[C@@H](Cc1ccc(Cl)cc1)C(N)=O has a half-life at 500 µM [6] of 3.99 h, a half-life at 500 µM [7] of 5.29 h and a pKi [8] of less than 6.00. For the same compound, the Activity [25] was “Active”, the pKi [13] was 8.91 and the Activity [26] was “Active”.

N=C(N)N[C@@H](Cc1ccc(O)cc1)C(=O)N1CCC[C@@H]1C(=O)NCC(=O)N[C@@H](Cc1ccccc1)C(N)=O gave a half-life at 500 µM [6] of 3.68 h, a half-life at 500 µM [7] of 4.94 h and a pKi [8] of 5.34. The Ratio Ki [9] was 18.4 and the pKi [13] was 6.61.

C[C@@H](NC(=O)[C@@H](N)Cc1ccc(O)cc1)C(=O)NCC(=O)N[C@@H](Cc1ccccc1)C(N)=O showed a half-life at 500 µM [6] of 4.38 h, a half-life at 500 µM [7] of 4.33 h and a pKi [8] of 5.42. The Ratio Ki [9] was 1800, the Activity [25] was “Active” and the pKi [13] was 8.68. The Activity [26] was “Active”.

In the case of NC(=O)[C@H](Cc1ccccc1)NC(=O)[C@H](Cc1c[nH]c2ccccc12)NC(=O)[C@@H]1CCCN1C(=O)[C@@H](N)Cc1ccc(O)cc1 [ENDOMORPHIN-1], the Activity [27] was “Active”, the half-life at 500 µM [6] was 0.101 h and the half-life at 500 µM [7] was 0.392 h.

Compound CN1CC[C@]23c4c5ccc(O)c4O[C@H]2[C@@H](O)C=C[C@H]3[C@H]1C5 [MORPHINE] has an Activity [2] of 65.6%, an Activity [3] of 57.6% and an Activity [10] of 70.8%. For the same compound, the Activity [11] was 60.7%, the Activity [12] was 63% and the Activity [14] was 59.3%. It also gave an Activity [15] of 69.4%, an Activity [16] of 69% and an Activity [17] of 55.7%. For the same compound, the Activity [26] was “Active”, the Activity [18] was 62.7% and the Activity [19] was 62.7%. The Activity [20] was 60.2%, the Activity [22] was 58.8% and the Activity [23] was 67%. For the same compound, the Activity [24] was 57.7%.

For C[C@@H](NC(=O)[C@H](Cc1ccc(O)cc1)NC(=N)N)C(=O)NCC(=O)N[C@@H](Cc1ccccc1)C(N)=O, the Activity [1] was “Active”, the Activity [2] was 64.5% and the Activity [3] was 59%. The Activity [4] was “Active”, the Activity [5] was “Active” and the half-life at 500 µM [6] was 3.87 h. The half-life at 500 µM [7] was 6.07 h, the pKi [8] was 6.08 and the Ratio Ki [9] was 2000. For the same compound, the Activity [10] was 68.5%, the Activity [11] was 58% and the Activity [12] was 59.6%. The pKi [13] was 9.38, the Activity [14] was 57.3% and the Activity [15] was 66.7%. For the same compound, the Activity [16] was 58.6%, the Activity [17] was 56.5% and the Activity [18] was 62.1%. The Activity [19] was 60.6%, the Activity [20] was 60.3% and the MPE [21] was 90 - 100%. It also gave an Activity [22] of 59.1%, an Activity [23] of 62.8% and an Activity [24] of 53.2%.
